Results taken from article PMC9561113, “[2]-Ladderanes as isosteres for meta-substituted aromatic rings and rigidified cyclohexanes” (Nature Communications, 2022).
In brackets after ≈: the same amount, converted by molar mass.

Assays:
[1] = Microsomal clearance (rat liver microsomal intrinsic clearance); assay type: in vitro ADME; details: rat liver microsomes, 37 °C, NADPH, 0-30 minutes
From the text: The metabolic and physicochemical properties of the [2]-ladderanes compared to aryl/cyclohexyl matched pairs were also studied (compare 35 with 36/37 and 38 with 39/40) (Fig. 5). These structures were chosen because they bear functional groups that are common in drug discovery, yet unlikely to pose any inherent risks. In addition, solubility, permeability, rat liver microsomal intrinsic clearance, and LogP were selected to be evaluated as these are common parameters modulated in drug discovery programs to improve the pharmacokinetic/pharmacodynamic and safety profiles of potential drug candidates.
The following procedure was adapted from the literature. 14 The experiment was performed in 96-well plate format with shaking incubation at 37 °C and 750 rpm. The compounds in 10 mM DMSO were diluted 1:1000 in 100 mM potassium phosphate (Kpi) buffer to 10 µM. 30 µL of the compound solution was added to 120 µL of pretreated microsomal protein for 150 µL enzyme-substrate mixture. Reactions were initiated by addition of 150 µL of cofactor solution (2 mM NADPH, 4 mM MgCl2 in 100 mM KPi). At specific reaction time points (0, 5, 15 and 30 minutes), reaction aliquots (25 µL) were removed and terminated by addition to acetonitrile (150 µL) containing mass spectrometry internal standard (0.4 µM glyburide). The samples were then centrifuged at 500g, and the supernatants analyzed by LC-MS/MS for quantitation of remaining target compound. The percentage of target compound remaining, relative to 0 minutes, was used to estimate in vitro elimination-rate constant (kmic). […]

[2] = High throughput equilibrium solubility (miniaturized shake flask); assay type: physicochemical; details: phosphate buffer, aqueous buffer, thermodynamic from solid; pH 6.8 phosphate media, shaken 16 hours
Method: High Throughput Equilibriu m Solubility:
The following procedure was adapted from the literature.15 Equilibrium solubility was determined using a miniaturized shake flask approach as described in Zhou et al. Aliquots of 10 mM DMSO compound solution were dispensed in triplicate (2.5 µL/sample) in 96-well polypropylene plates using a Labcyte Echo 525 acoustic dispenser. The DMSO was removed using a GeneVac HT4X evaporator for 15 minutes, 35 °C and full vacuum. Media (pH 6.8 Di-Sodium Hydrogen Phosphate/Potassium Hydrogen Phosphate) was added to each well to achieve a target concentration of 1 mM. The plate was sealed and shaken for 16 hours, then centrifuged at 1000g for phase separation. An aliquot of supernatant was transferred to a new plate, centrifuged a second time at 100g, and then the final supernatant was further diluted for subsequent analysis. Quantification of solubility was performed using a Sound Analytics LS1 and Sciex 6500+ MS/MS and an 8-point calibration curve. […]

[3] = Permeability (MDCK), apparent permeability apical-to-basolateral; assay type: in vitro ADME; details: dog, with bafilomycin 100 nM in both compartments, MDCK-KO cells, pH 7.4, 2 h, read-out: Papp A-Bx10^-6
Method: The following procedure was adapted from the literature.16 To determine the apparent permeability (Papp), MDCK knockout (MDCK-KO) cells were seeded on Transwell 96 -well plate inserts (Corning, Tewksbury, MA,) at a density of 1.5 × 10^5 cells/cm2 in high glucose DMEM with GlutaMAX containing 10% […]
v/v heat deactivated FBS and 1% v/v penicillin-streptomycin (all from Gibco) and grown for 4 days at 37 °C in an atmosphere of 5% CO 2 and 95% relative humidity. Stock solutions of the compounds were prepared in dimethyl sulfoxide (DMSO) (10 mM), and each compound was dosed in triplicate at a final concentration of 10 μM in Hanks’ balanced salt solution (HBSS) at pH 7.4 containing 10 mM 4-(2-hydroxyethyl)-1-piperazineethanesulfonic acid (HEPES) and 0.02% w/v bovine serum albumin (BSA). A solution without the compounds and containing 5% BSA was added to the acceptor. Bafilomycin (100 nM) was added to both compartments. Cells were incubated with the compounds for 2 h at 37 °C, and flux was measured in the apical-to-basolateral direction. Aliquots from the apical, basal and compound dilution plate were sampled and diluted in 90% Methanol 10% Water with 0.1% Formic acid and 0.4 μ M glyburide as an analytical standard to precipitate the protein. The solutions as well as the calibration solutions were centrifuged for 30 min at 3000 rpm for protein precipitation. Drug concentrations in the donor and acceptor compartments were measured by liquid chromatography–mass spectrometry (LC-MS/MS). […]

[4] = Log P (Pion SiriusT3 instrument); assay type: physicochemical
Method: v/v heat deactivated FBS and 1% v/v penicillin-streptomycin (all from Gibco) and grown for 4 days at 37 °C in an atmosphere of 5% CO 2 and 95% relative humidity. Stock solutions of the compounds were prepared in dimethyl sulfoxide (DMSO) (10 mM), and each compound was dosed in triplicate at a final concentration of 10 μM in Hanks’ balanced salt solution (HBSS) at pH 7.4 containing 10 mM 4-(2-hydroxyethyl)-1-piperazineethanesulfonic acid (HEPES) and 0.02% w/v bovine serum albumin (BSA). A solution without the compounds and containing 5% BSA was added to the acceptor. Bafilomycin (100 nM) was added to both compartments. Cells were incubated with the compounds for 2 h at 37 °C, and flux was measured in the apical-to-basolateral direction. Aliquots from the apical, basal and compound dilution plate were sampled and diluted in 90% Methanol 10% Water with 0.1% Formic acid and 0.4 μ M glyburide as an analytical standard to precipitate the protein. The solutions as well as the calibration solutions were centrifuged for 30 min at 3000 rpm for protein precipitation. Drug concentrations in the donor and acceptor compartments were measured by liquid chromatography–mass spectrometry (LC-MS/MS).
The Log P was measured using a Pion SiriusT3 instrument.
To determine the stability of the bicyclo[2.2.0] system, the following experiments were performed:
Aqueous stability at two different pH:
SI-48 was first saponified to avoid the possibility of acid- or base-mediated hydrolysis:
Two solutions of pH = 2 and pH = 10 were prepared with 1M solutions of HCl and NaOH. Then, SI-49 was stirred in two separate solutions (1 mL of each of the aqueous solution and 0.80 mL of MeCN for each).
LC/MS for both durations. […]

| Structure (SMILES) | Rat Clint [1] [mL/min] | solubility at 16 h [2] [µM] | Papp at 2 h, 10 μM [3] [nm/s] | logP [4] |
| --- | --- | --- | --- | --- |
| O=C(C1CC2CC(CO)C21)N1CCCCC1 (stereo not drawn) [compound 35] | 15 | > 200 | 290 | 0.74 |
| O=C(c1cccc(CO)c1)N1CCCCC1 [compound 36] | < 10 | > 200 | 320 | 0.41 |
| O=C(C1CCCC(CO)C1)N1CCCCC1 (stereo not drawn) [compound 37] | 21 | > 200 | 280 | 1.45 |
| O=C(O)[C@@H]1C[C@H]2C[C@H](C(=O)N3CCCCC3)[C@H]21 [compound 38] | < 10 | 180 (≈ 42.7 µg/mL) | 50 | 0.98 |
| O=C(O)c1cccc(C(=O)N2CCCCC2)c1 [compound 39] | < 10 | > 200 | 40 | 1.15 |
| O=C(O)C1CCCC(C(=O)N2CCCCC2)C1 (stereo not drawn) [compound 40] | < 10 | 200 (≈ 47.9 µg/mL) | 40 | 0.95 |
